Results taken from patent US10799603B2, “Kinase and/or phosphatase sensing via hydroxyquinoline-sensitized chelates” (Massachusetts Institute of Technology, priority 2018, dated 2020).
Square brackets hold non-standard residues; d marks the D form. Ends that are not written are not given here. * marks the point of attachment. Sox = hydroxyquinoline on cysteine, CN(C)S(=O)(=O)c1ccc(O)c2nc(C*)ccc12; pT = C[C@@H](OP(=O)(O)O)[C@H](N)C(=O)O

Assay: Eu(III) titration, time-resolved luminescence, determination of Eu(III) dissociation constants
Assay type: binding
Conditions: 5 micromolar peptide, 30° C., 50 mM HEPES pH 7.5, 100 mM NaCl; averages of three separate experiments
Protocol: The luminescence experiments were conducted as follows. Time-resolved emission measurements were made with a CLARIOstar® spectrofluorimeter. The spectra were recorded between 410 and 700 nm, and all measurements were made using the following settings: excitation wavelength 360 nm; delay time 0.4 ms; stepwidth 1.0 nm; emission bandwidth 8 nm; gain: 3000; focal height […]; 20 flashes per well. All of the spectra were corrected for background luminescence by subtracting a blank scan of the solvent solution.
Determination of Eu(III) dissociation constants (KD). Eu(III) titrations were performed at 30° C. in a buffer containing 50 mM HEPES buffer, pH 7.5, 100 mM NaCl, and 5 micromolar of the of the phosphopeptide Sox-P (5 micromolar) or the corresponding unphosphorylated biosensor Sox-OH (5 micromolar) in a total volume of 200 microliters. Aliquots of EuCl3 stock solutions were added (for the final EuCl3 concentration in the well to be in the range of approximately 2.5-6000 micromolar) and the data was recorded in the fluorometer. Data were fit with the program GraFit 7. The reported values are averages of three separate experiments.

LVEPLT*PC(Sox)GEA (LVEPL[pT]PC(Sox)GEA) [Sox-P, phosphopeptide with Sox hydroxyquinoline attached to the S of the cysteine]
Kd: 18.4 µM

LVEPLTPC(Sox)GEA [Sox-OH, unphosphorylated biosensor peptide with Sox hydroxyquinoline attached to the S of the cysteine]
Kd: 1570 µM
